Each structure is given as a SMILES string.

By logP is commonly meant the decadic logarithm of the partition coefficient of the neutral form, usually between octanol and water. A higher logP goes with higher lipophilicity. Turning to `Cc1ccc(S(=O)(=O)C2(C(=O)OC(C)C)CCC2)cc1`, the logP was found to be 2.78.

As to `COC(=O)C1(S(=O)(=O)c2ccc(Br)cc2)CCCCC1`, the logP came out at 2.94.

`CC(C)(C)OC(=O)C1(S(=O)(=O)c2ccc(Cl)cc2)CC1` had a logP of 2.68.

`CC(C)OC(=O)C1(S(=O)(=O)c2ccc([N+](=O)[O-])cc2)CCC1` showed a logP of 2.36.

`CCOC(=O)C1(S(=O)(=O)c2ccc(C)cc2)CC1` yielded a logP of 2.23.

In the case of `COC(=O)C1(S(=O)(=O)c2ccc([N+](=O)[O-])cc2)CC1`, the logP amounted to 1.33.

As to `COC(=O)C1(S(=O)(=O)c2ccc(Br)cc2)CCC1`, the logP is 2.45.

With `CCOC(=O)C1(S(=O)(=O)c2ccc(C)cc2)CCC1`, the logP was found to be 2.31.

The molecule `COC(=O)C1(S(=O)(=O)c2ccc(C)cc2)CC1` had a logP of 1.77.

Molecule `COC(=O)C1(S(=O)(=O)c2ccc(Cl)cc2)CCC1` returned a logP of 2.28.

Consider `CC(C)OC(=O)C1(S(=O)(=O)c2ccc([N+](=O)[O-])cc2)CCCCCC1`, for which the logP came to 3.41.

The molecule `CC(C)OC(=O)C1(S(=O)(=O)c2ccc(Cl)cc2)CCCC1` had a logP of 3.16.

`COC(=O)C1(S(=O)(=O)c2ccccc2)CC1` displayed a logP of 1.43.

The molecule `COC(=O)C1(S(=O)(=O)c2ccc(Br)cc2)CCCC1` returned a logP of 2.73.

As to `COC(=O)C1(S(=O)(=O)c2ccc(Cl)cc2)CC1`, the logP worked out at 2.03.

In turn, `CC(C)OC(=O)C1(S(=O)(=O)c2ccc([N+](=O)[O-])cc2)CCCCC1` showed a logP of 2.84.

For `COC(=O)C1(S(=O)(=O)c2ccccc2)CCCC1`, the logP turned out to be 1.98.

For the molecule `Cc1ccc(S(=O)(=O)C2(C(=O)OC(C)C)CC2)cc1`, the logP was determined as 2.52.

The molecule `COC(=O)C1(S(=O)(=O)c2ccc(Br)cc2)CC1` displayed a logP of 2.32.

As to `CC(C)OC(=O)C1(S(=O)(=O)c2ccc([N+](=O)[O-])cc2)CC1`, the logP stood at 2.05.

Consider `COC(=O)C1(S(=O)(=O)c2ccccc2)CCC1`, for which the logP came to 1.63.

Turning to `COC(=O)C1(S(=O)(=O)c2ccccc2)CCCCC1`, the log partition coefficient (logP) was 2.3.

In the case of `CC(C)OC(=O)C1(S(=O)(=O)c2ccc(Cl)cc2)CC1`, the logP turned out to be 2.64.
